Test results as given in PMC9926234, “Iterative computational design and crystallographic screening identifies potent inhibitors targeting the Nsp3 macrodomain of SARS-CoV-2” (Proceedings of the National Academy of Sciences of the …, 2023).
Several values for one entry are separate records, joined by “and”; a condition that tells them apart may be missing. Equal values may be shown once. Read-outs that look alike come from different tables or passages of the source.

Biological target: SARS-CoV-2 NSP3 Mac1 (Severe acute respiratory syndrome coronavirus 2, UniProt P0DTD1)
Format: binding
Conditions: for Refined occupancy: ligand occupancy after refinement (phenix.refine)
[1] = PanDDA event map background density correction, crystal soak, compound concentration 100 mM
[2] = PanDDA event map, 1 minus background density correction, crystal soaking of Mac1
[3] = ligand modeled in the crystal structure, crystal soak, compound concentration 100 mM
[4] = PanDDA 1-BDC of the event, compound stock 100 mM, Echo dispense volume 80 nl
[5] = PanDDA event map 1-BDC, crystal soak, Compound_concentration 100 mM, PanDDA run dmso_34 or nohits_35 per dataset
[6] = PanDDA event map, crystal soak, Compound_concentration 100 mM, Echo_dispense_volume 40 nl
[7] = crystal soak, Compound_concentration 100 mM, Echo dispense 40 nl, PanDDA run dmso_34 or nohits_35 per dataset
[8] = crystal soak, Compound_concentration 100 mM, Echo_dispense_volume 40 nl, PanDDA run (background map) dmso_34, nohits_35 or nohits_62
[9] = crystal soak, compound stock 100 mM, Echo dispense volume 80 nl
[10] = ligand modeled, crystal soak, Compound_concentration 100 mM, Echo_dispense_volume 40 nl
[11] = PanDDA 1-BDC (background density correction) of the event, crystal soak 100 mM, PanDDA run dmso_34
[12] = crystal soak, compound concentration 100 mM, PanDDA run dmso_34, series docking_lead-like_1
[13] = ligand modeled in the crystal structure, crystal soak 100 mM, PanDDA run dmso_34
[14] = PanDDA 1-BDC of the event, compound stock 100 mM, Echo dispense volume 40 nl
[15] = crystal soak, compound stock 100 mM, Echo dispense volume 40 nl
[16] = ligand modeled in structure, compound stock 100 mM, Echo dispense volume 40 nl
[17] = ligand modeled in this dataset, crystal soak, Compound_concentration 100 mM
[18] = ligand modeled from this dataset, compound concentration 100 mM
[19] = ligand modeled in structure, compound stock 100 mM, Echo dispense volume 80 nl

SMILES: Cc1oc(CNc2ncnc3[nH]c4ccccc4c23)cc1C(=O)O [Compound Z3124]
- 1-BDC [1]: 0.09
- 1-BDC (PanDDA) [2]: 0.09
- Modeled? [3]: TRUE
- Refined occupancy (crystal soaking of Mac1): 18

SMILES: Cc1oc(C(N)=O)cc1S(=O)(=O)Nc1cnc(Cl)c(C#N)c1 [Compound Z6746]
- 1-BDC [1]: 0.16
- 1-BDC (PanDDA) [2]: 0.16
- Modeled? [3]: TRUE
- Refined occupancy (crystal soaking of Mac1): 32

SMILES: CO[C@@H]1CN(c2ncnc3[nH]c4cc(F)ccc4c23)C[C@@H](CO)O1 [Compound Z8973]
- 1-BDC [4]: 0.25
- 1-BDC [5]: 0.23
- 1-BDC (PanDDA) [2]: 0.23
- 1-BDC [6]: 0.23
- PanDDA hit? [7]: TRUE
- PanDDA hit? [8]: TRUE
- PanDDA hit? [9]: TRUE
- Modeled? [10]: TRUE
- Refined occupancy (crystal soaking of Mac1): 60

SMILES: COc1cncc(C(=O)NCCNC(=O)c2ncccc2O)c1 [Compound Z6634]
- 1-BDC (PanDDA) [2]: 0.14
- 1-BDC [6]: 0.14
- PanDDA hit? [8]: TRUE
- Modeled? [10]: TRUE
- Refined occupancy (crystal soaking of Mac1): 28

SMILES: O=C(O)CC1CC(CNC(=O)c2cncc3sccc23)C1 (centres unmarked) [Compound Z1558]
- 1-BDC (PanDDA) [2]: 0.24
- 1-BDC [6]: 0.24
- PanDDA hit? [8]: TRUE
- Modeled? [10]: TRUE
- Refined occupancy (crystal soaking of Mac1): 48
- Comment (ligand modelled in the crystal structure) (what was observed in density instead of the vendor structure): C4 substituted thiophene

SMILES: c1csc(CC2CCN(c3ncnc4[nH]ccc34)C2)n1 (centres unmarked) [Compound Z6891]
- 1-BDC [11]: 0.3
- 1-BDC [2]: 0.3
- PanDDA hit? [12]: TRUE
- Modeled? [13]: TRUE
- Refined occupancy (crystal soaking of Mac1): 60

SMILES: O=C(O)CC1CN(c2ncnc3[nH]c4ccccc4c23)CCO1 (centres unmarked) [Compound Z9596]
- 1-BDC [14]: 0.06
- 1-BDC [4]: 0.09
- 1-BDC (PanDDA) [2]: 0.06
- PanDDA hit? [15]: TRUE
- PanDDA hit? [9]: TRUE
- Modeled? [16]: TRUE
- Refined occupancy (crystal soaking of Mac1): 12

SMILES: O=C(Nc1ccc(C(=O)N[C@H]2c3cccc(O)c3C[C@H]2C(=O)O)cc1)NC1CC1 [Compound Z9050]
- 1-BDC [5]: 0.21 and 0.27
- 1-BDC (PanDDA) [2]: 0.27
- PanDDA hit? [7]: TRUE
- Modeled? [17]: TRUE
- Refined occupancy (crystal soaking of Mac1): 54

SMILES: O=C(O)C(F)(F)F.O=C(O)C1CN(c2ncnc3[nH]c4ccccc4c23)CC12CCC2 (centres unmarked) [Compound Z4706]
- 1-BDC [4]: 0.21
- 1-BDC [5]: 0.17
- 1-BDC (PanDDA) [2]: 0.14
- 1-BDC [6]: 0.14
- PanDDA hit? [7]: TRUE
- PanDDA hit? [8]: TRUE
- PanDDA hit? [9]: TRUE
- Modeled? [10]: TRUE
- Refined occupancy (crystal soaking of Mac1): 28

SMILES: CC(Cc1ccco1)C(=O)N[C@@H](CC(=O)O)c1ccc2c(c1)OCO2 (some centres unmarked) [Compound Z1877]
- 1-BDC [1]: 0.15
- 1-BDC (PanDDA) [2]: 0.15
- Modeled? [3]: TRUE
- Refined occupancy (crystal soaking of Mac1): 30

SMILES: CC1(C)CN(c2ncnc3[nH]c4ccccc4c23)CC(CC(=O)O)O1 (centres unmarked) [Compound Z2215]
- 1-BDC [14]: 0.05
- 1-BDC [5]: 0.04
- 1-BDC (PanDDA) [2]: 0.05
- PanDDA hit? [7]: TRUE
- PanDDA hit? [15]: TRUE
- Modeled? [16]: TRUE
- Refined occupancy (crystal soaking of Mac1): 10

SMILES: O=C(Nc1ccc(C(=O)N[C@@H]2c3cccc(O)c3C[C@H]2C(=O)O)cc1)NC1CC1 [Compound E2160]
- 1-BDC [5]: 0.08 and 0.1
- 1-BDC (PanDDA) [2]: 0.1
- PanDDA hit? [7]: TRUE
- Modeled? [17]: TRUE
- Refined occupancy (crystal soaking of Mac1): 20

SMILES: O=C(NC1c2cccc(O)c2CC1C(=O)O)c1ccc(Nc2cccnc2)cc1 (centres unmarked) [Compound Z8539_0018]
- 1-BDC (PanDDA) [2]: 0.1
- Modeled? [18]: TRUE
- Refined occupancy (crystal soaking of Mac1): 20

SMILES: O=C(O)CC1CCN(c2ncnc3[nH]c4ccccc4c23)CCC1(F)F (centres unmarked) [Compound Z6423]
- 1-BDC [5]: 0.07
- PanDDA hit? [7]: TRUE

SMILES: O=C(O)c1ccc(F)c(CNC(=O)c2ccc3[nH]ccc3c2)c1 [Compound Z7647]
- 1-BDC (PanDDA) [2]: 0.09
- 1-BDC [6]: 0.09
- PanDDA hit? [8]: TRUE
- Modeled? [10]: TRUE
- Refined occupancy (crystal soaking of Mac1): 18

SMILES: O=C(O)[C@@H]1[C@@H]2CCN(c3ncnc4[nH]c5cc(F)ccc5c34)C[C@@H]21 [LL114_0037]
- 1-BDC [4]: 0.17
- 1-BDC [5]: 0.17
- 1-BDC (PanDDA) [2]: 0.17
- PanDDA hit? [7]: TRUE
- PanDDA hit? [9]: TRUE
- Modeled? [19]: TRUE
- Refined occupancy (crystal soaking of Mac1): 34

SMILES: O=C(O)CC(NC(=O)c1cc(F)cc2[nH]cnc12)c1ccc(Br)cc1 (centres unmarked) [Compound Z3722]
- 1-BDC (PanDDA) [2]: 0.29
- 1-BDC [6]: 0.29
- PanDDA hit? [8]: TRUE
- Modeled? [10]: TRUE
- Refined occupancy (crystal soaking of Mac1): 40

SMILES: Nc1nc(N)c2ncn(Cc3csc(Cl)n3)c2n1 [Compound Z8572]
- 1-BDC [2]: 0.44
- Modeled? (ligand modeled in structure, crystal soak, Compound_concentration 100 mM): TRUE
- Refined occupancy (crystal soaking of Mac1): 88

SMILES: O=C(Cc1ccc(-n2cccn2)cc1)OCC1CCCNC1=O (centres unmarked) [Compound Z5505]
- 1-BDC (PanDDA event map background density correction, crystal soak, Compound_concentration 100 mM, PanDDA run dmso_34): 0.08
- 1-BDC [2]: 0.08
- PanDDA hit? (crystal soak, Compound_concentration 100 mM, Echo dispense 40 nl, PanDDA run dmso_34): TRUE
- Modeled? (ligand modeled in crystal structure, crystal soak, Compound_concentration 100 mM, PanDDA run dmso_34): TRUE
- Refined occupancy (crystal soaking of Mac1): 16

SMILES: O=C(O)Cc1cccc(CNC(=O)c2ncnc3ccsc23)c1 [Compound Z5712]
- 1-BDC (PanDDA) [2]: 0.32
- 1-BDC [6]: 0.32
- PanDDA hit? [8]: TRUE
- Modeled? [10]: TRUE
- Refined occupancy (crystal soaking of Mac1): 64

SMILES: CNc1cc(-c2noc(CN3CCCC3=O)n2)ncn1 [Compound Z6028]
- 1-BDC [11]: 0.05
- PanDDA hit? [12]: TRUE

SMILES: O=C1CCCN1CCSc1ncnc2[nH]cnc12 [Compound Z9920]
- 1-BDC [11]: 0.21
- 1-BDC [2]: 0.21
- PanDDA hit? [12]: TRUE
- Modeled? [13]: TRUE
- Refined occupancy (crystal soaking of Mac1): 42

SMILES: OCc1cn(C2CCCN(c3ncnc4[nH]ccc34)C2)nn1 (centres unmarked) [Compound Z7864]
- 1-BDC [11]: 0.05
- 1-BDC [2]: 0.05
- PanDDA hit? [12]: TRUE
- Modeled? [13]: TRUE
- Refined occupancy (crystal soaking of Mac1): 10

SMILES: O=C(Nc1ccc(C(=O)NC2c3cccc(O)c3CC2C(=O)O)cn1)NC1CC1 (centres unmarked) [Compound Z8539_0054]
- 1-BDC [2]: 0.14
- Modeled? [18]: TRUE
- Refined occupancy (crystal soaking of Mac1): 28

SMILES: Cc1oc(=O)oc1CSc1ncnc2[nH]cnc12 [Compound Z7450]
- 1-BDC [11]: 0.23
- 1-BDC [2]: 0.23
- PanDDA hit? [12]: TRUE
- Modeled? [13]: TRUE
- Refined occupancy (crystal soaking of Mac1): 25

SMILES: Cn1ncc2ncnc(NS(=O)(=O)Cc3ccc(CC#N)cc3)c21 [Compound Z6742]
- 1-BDC [1]: 0.31
- 1-BDC (PanDDA) [2]: 0.31
- Modeled? [3]: TRUE
- Refined occupancy (crystal soaking of Mac1): 62

SMILES: O=C(NC1c2cccc(O)c2CC1C(=O)O)c1ccc(Nc2cccnc2)cc1 (centres unmarked) [Z8539_0018]
- HIT* (true hit = binding in crystallographic soaking or the HTRF-based binding assay): Y

SMILES: CC(C)c1noc(CCc2nc(-c3ccnc4[nH]ccc34)no2)n1 [Compound Z1347]
- 1-BDC [11]: 0.03
- PanDDA hit? [12]: TRUE

SMILES: COC(=O)C1(CO)CCN(c2ncnc3[nH]c4cc(F)ccc4c23)C1 (centres unmarked) [Compound Z9556]
- 1-BDC [4]: 0.1
- 1-BDC (PanDDA) [2]: 0.1
- PanDDA hit? [9]: TRUE
- Modeled? [19]: TRUE
- Refined occupancy (crystal soaking of Mac1): 20
